Results: US20240109903A1, “SUBSTITUTED HETEROCYCLES FOR TREATING CANCER” (Northwestern University, priority 2022, published 2024)

Key:
MDA-MB-435 = test: NCI 60 five-dose screen MDA-MB-435; type: cell-based; settings: Homo sapiens; for CC50: read-out: LC50 (the source's name) (converted)
COLO 205 = test: NCI 60 five-dose screen COLO 205; type: cell-based; settings: Homo sapiens; for CC50: read-out: LC50 (the source's name) (converted)
NCI-H522 = test: NCI 60 five-dose screen NCI-H522; type: cell-based; settings: Homo sapiens; for CC50: read-out: LC50 (the source's name) (converted)
full NCI 60 cell panel = test: NCI 60 Cell One-dose screen; type: cell-based, human; settings: single high dose 10^−5 M, NCI 60 panel
In short: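 Single dose of 10^−5 M across the full NCI-60 human tumour cell panel. Value is percent growth relative to no-drug control and to time-zero cell number: 0–100 means growth inhibition, 0 means no net growth, below 0 means lethality (−100 = all cells dead).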

SN12C = test: NCI 60 five-dose screen SN12C; type: cell-based; settings: Homo sapiens; for CC50: read-out: LC50 (the source's name) (converted)
BT-549 = test: NCI 60 five-dose screen BT-549; type: cell-based; settings: Homo sapiens; for CC50: read-out: LC50 (the source's name) (converted)
NCI/ADR-RES = test: NCI 60 five-dose screen NCI/ADR-RES; type: cell-based; settings: Homo sapiens; for CC50: read-out: LC50 (the source's name) (converted)
ACHN = test: NCI 60 five-dose screen ACHN; type: cell-based; settings: Homo sapiens; for CC50: read-out: LC50 (the source's name) (converted)
EKVX = test: NCI 60 five-dose screen EKVX; type: cell-based; settings: Homo sapiens; for CC50: read-out: LC50 (the source's name) (converted)
SK-MEL-2 = test: NCI 60 five-dose screen SK-MEL-2; type: cell-based; settings: Homo sapiens; for CC50: read-out: LC50 (the source's name) (converted)
SNB-75 = test: NCI 60 five-dose screen SNB-75; type: cell-based; settings: Homo sapiens; for CC50: read-out: LC50 (the source's name) (converted)
NCI-H322M = test: NCI 60 five-dose screen NCI-H322M; type: cell-based; settings: Homo sapiens; for CC50: read-out: LC50 (the source's name) (converted)
MDA-MB-468 = test: NCI 60 five-dose screen MDA-MB-468; type: cell-based; settings: Homo sapiens; for CC50: read-out: LC50 (the source's name) (converted)
SW-620 = test: NCI 60 five-dose screen SW-620; type: cell-based; settings: Homo sapiens; for CC50: read-out: LC50 (the source's name) (converted)
T-47D = test: NCI 60 five-dose screen T-47D; type: cell-based; settings: Homo sapiens, T47D; for CC50: read-out: LC50 (the source's name)
LOX IMVI = test: NCI 60 five-dose screen LOX IMVI; type: cell-based; settings: Homo sapiens; for CC50: read-out: LC50 (the source's name) (converted)
HOP-92 = test: NCI 60 five-dose screen HOP-92; type: cell-based; settings: Homo sapiens; for CC50: read-out: LC50 (the source's name) (converted)
A549/ATCC = test: NCI 60 five-dose screen A549/ATCC; type: cell-based; settings: Homo sapiens; for CC50: read-out: LC50 (the source's name) (converted)
UO-31 = test: NCI 60 five-dose screen UO-31; type: cell-based; settings: Homo sapiens; for CC50: read-out: LC50 (the source's name) (converted)
SF-295 = test: NCI 60 five-dose screen SF-295; type: cell-based; settings: Homo sapiens; for CC50: read-out: LC50 (the source's name) (converted)
CAKI-1 = test: NCI 60 five-dose screen CAKI-1; type: cell-based; settings: Homo sapiens; for CC50: read-out: LC50 (the source's name) (converted)
786-0 = test: NCI 60 five-dose screen 786-0; type: cell-based; settings: Homo sapiens; for CC50: read-out: LC50 (the source's name) (converted)
PC-3 = test: NCI 60 five-dose screen PC-3; type: cell-based; settings: Homo sapiens; for CC50: read-out: LC50 (the source's name) (converted)
NCI-H460 = test: NCI 60 five-dose screen NCI-H460; type: cell-based; settings: Homo sapiens; for CC50: read-out: LC50 (the source's name) (converted)

COc1cc(Cn2c(C(F)(F)F)cc3c(Cl)ncnc32)ccn1 [NUCC-0226694]
GI50 (MDA-MB-435): 3.24 µM
IC50 (MDA-MB-435): 4.79 µM
IC (TGI) (MDA-MB-435): 14.5 µM
CC50 (MDA-MB-435): 50.1 µM
GI50 (COLO 205): 15.1 µM
IC50 (COLO 205): 26.3 µM
IC (TGI) (COLO 205): 46.8 µM
CC50 (COLO 205): ≥ 100 µM
GI50 (NCI-H522): 3.31 µM
IC50 (NCI-H522): 11 µM
IC (TGI) (NCI-H522): 15.1 µM
CC50 (NCI-H522): 50.1 µM
growth inhibition in the One-Dose Screen (full NCI 60 cell panel): significant growth inhibition
GI50 (SN12C): 9.12 µM
IC50 (SN12C): 15.5 µM
IC (TGI) (SN12C): 21.4 µM
CC50 (SN12C): 46.8 µM
GI50 (BT-549): 1.62 µM
IC50 (BT-549): 3.24 µM
IC (TGI) (BT-549): 3.16 µM
CC50 (BT-549): 6.03 µM
GI50 (NCI/ADR-RES): 15.1 µM
IC50 (NCI/ADR-RES): 27.5 µM
IC (TGI) (NCI/ADR-RES): 33.9 µM
CC50 (NCI/ADR-RES): 74.1 µM
GI50 (ACHN): 14.5 µM
IC50 (ACHN): 25.1 µM
IC (TGI) (ACHN): 28.8 µM
CC50 (ACHN): 57.5 µM
GI50 (EKVX): 7.94 µM
IC50 (EKVX): 17 µM
IC (TGI) (EKVX): 24 µM
CC50 (EKVX): 63.1 µM
GI50 (SK-MEL-2): 10 µM
IC50 (SK-MEL-2): 21.9 µM
IC (TGI) (SK-MEL-2): 22.4 µM
CC50 (SK-MEL-2): 51.3 µM
GI50 (SNB-75): 1.78 µM
IC50 (SNB-75): 6.61 µM
IC (TGI) (SNB-75): 7.24 µM
CC50 (SNB-75): 27.5 µM
GI50 (NCI-H322M): 1.7 µM
IC50 (NCI-H322M): 3.16 µM
IC (TGI) (NCI-H322M): 3.31 µM
CC50 (NCI-H322M): 6.31 µM
GI50 (MDA-MB-468): 1.78 µM
IC50 (MDA-MB-468): 3.98 µM
IC (TGI) (MDA-MB-468): 3.8 µM
CC50 (MDA-MB-468): 7.94 µM
GI50 (SW-620): 3.89 µM
IC50 (SW-620): 4.9 µM
IC (TGI) (SW-620): 16.6 µM
CC50 (SW-620): 49 µM
GI50 (T-47D): 13.5 µM
IC50 (T-47D): 38 µM
IC (TGI) (T-47D): 61.7 µM
CC50 (T-47D): ≥ 100 µM
GI50 (LOX IMVI): 1.66 µM
IC50 (LOX IMVI): 2.88 µM
IC (TGI) (LOX IMVI): 3.16 µM
CC50 (LOX IMVI): 6.03 µM
GI50 (HOP-92): 10.7 µM
IC50 (HOP-92): 33.9 µM
IC (TGI) (HOP-92): 30.2 µM
CC50 (HOP-92): 85.1 µM
GI50 (A549/ATCC): 16.6 µM
IC50 (A549/ATCC): 27.5 µM
IC (TGI) (A549/ATCC): 38 µM
CC50 (A549/ATCC): 89.1 µM
GI50 (UO-31): 8.71 µM
IC50 (UO-31): 18.2 µM
IC (TGI) (UO-31): 24 µM
CC50 (UO-31): 61.7 µM
GI50 (SF-295): 16.6 µM
IC50 (SF-295): 30.2 µM
IC (TGI) (SF-295): 32.4 µM
CC50 (SF-295): 63.1 µM
GI50 (CAKI-1): 7.24 µM
IC50 (CAKI-1): 13.8 µM
IC (TGI) (CAKI-1): 20.4 µM
CC50 (CAKI-1): 46.8 µM
GI50 (786-0): 10.7 µM
IC50 (786-0): 17 µM
IC (TGI) (786-0): 25.7 µM
CC50 (786-0): 63.1 µM
GI50 (PC-3): 5.5 µM
IC50 (PC-3): 9.55 µM
IC (TGI) (PC-3): 20.9 µM
CC50 (PC-3): 58.9 µM
GI50 (NCI-H460): 2.69 µM
IC50 (NCI-H460): 3.31 µM
IC (TGI) (NCI-H460): 8.13 µM
CC50 (NCI-H460): 34.7 µM

Fc1ccc(N2CC(Cn3c(C(F)(F)F)cc4c(Cl)ncnc43)C2)c(F)c1 [NUCC-0226695]
GI50 (MDA-MB-435): 4.9 µM
IC50 (MDA-MB-435): 7.59 µM
IC (TGI) (MDA-MB-435): 17.8 µM
CC50 (MDA-MB-435): 44.7 µM
GI50 (COLO 205): 15.1 µM
IC50 (COLO 205): 26.9 µM
IC (TGI) (COLO 205): 32.4 µM
CC50 (COLO 205): 70.8 µM
GI50 (NCI-H522): 1.82 µM
IC50 (NCI-H522): 3.47 µM
IC (TGI) (NCI-H522): 3.98 µM
CC50 (NCI-H522): 8.71 µM
growth inhibition in the One-Dose Screen (full NCI 60 cell panel): significant growth inhibition
GI50 (SN12C): 1.95 µM
IC50 (SN12C): 3.31 µM
IC (TGI) (SN12C): 5.01 µM
CC50 (SN12C): 16.2 µM
GI50 (BT-549): 10.7 µM
IC50 (BT-549): 23.4 µM
IC (TGI) (BT-549): 22.9 µM
CC50 (BT-549): 49 µM
GI50 (NCI/ADR-RES): 10.2 µM
IC50 (NCI/ADR-RES): 18.2 µM
IC (TGI) (NCI/ADR-RES): 26.3 µM
CC50 (NCI/ADR-RES): 69.2 µM
GI50 (ACHN): 12.9 µM
IC50 (ACHN): 21.9 µM
IC (TGI) (ACHN): 27.5 µM
CC50 (ACHN): 58.9 µM
GI50 (EKVX): 6.61 µM
IC50 (EKVX): 16.6 µM
IC (TGI) (EKVX): 20 µM
CC50 (EKVX): 46.8 µM
GI50 (SK-MEL-2): 15.8 µM
IC50 (SK-MEL-2): 31.6 µM
IC (TGI) (SK-MEL-2): 30.9 µM
CC50 (SK-MEL-2): 61.7 µM
GI50 (SNB-75): 12 µM
IC50 (SNB-75): 25.1 µM
IC (TGI) (SNB-75): 24.5 µM
CC50 (SNB-75): 51.3 µM
GI50 (NCI-H322M): 10.7 µM
IC50 (NCI-H322M): 20.4 µM
IC (TGI) (NCI-H322M): 22.9 µM
CC50 (NCI-H322M): 47.9 µM
GI50 (MDA-MB-468): 1.62 µM
IC50 (MDA-MB-468): 3.39 µM
IC (TGI) (MDA-MB-468): 3.24 µM
CC50 (MDA-MB-468): 6.31 µM
GI50 (SW-620): 1.91 µM
IC50 (SW-620): 3.16 µM
IC (TGI) (SW-620): 3.8 µM
CC50 (SW-620): 7.76 µM
GI50 (T-47D): 13.8 µM
IC50 (T-47D): 43.7 µM
IC (TGI) (T-47D): 67.6 µM
CC50 (T-47D): ≥ 100 µM
GI50 (LOX IMVI): 1.62 µM
IC50 (LOX IMVI): 2.82 µM
IC (TGI) (LOX IMVI): 3.02 µM
CC50 (LOX IMVI): 5.5 µM
GI50 (HOP-92): 11 µM
IC50 (HOP-92): 26.9 µM
IC (TGI) (HOP-92): 25.7 µM
CC50 (HOP-92): 58.9 µM
GI50 (A549/ATCC): 17.4 µM
IC50 (A549/ATCC): 29.5 µM
IC (TGI) (A549/ATCC): 35.5 µM
CC50 (A549/ATCC): 74.1 µM
GI50 (UO-31): 2.69 µM
IC50 (UO-31): 5.75 µM
IC (TGI) (UO-31): 10.7 µM
CC50 (UO-31): 33.1 µM
GI50 (SF-295): 11.5 µM
IC50 (SF-295): 20 µM
IC (TGI) (SF-295): 24.5 µM
CC50 (SF-295): 52.5 µM
GI50 (CAKI-1): 11.7 µM
IC50 (CAKI-1): 20.4 µM
IC (TGI) (CAKI-1): 24 µM
CC50 (CAKI-1): 50.1 µM
GI50 (786-0): 14.8 µM
IC50 (786-0): 26.3 µM
IC (TGI) (786-0): 28.8 µM
CC50 (786-0): 57.5 µM
GI50 (PC-3): 3.09 µM
IC50 (PC-3): 4.27 µM
IC (TGI) (PC-3): 11 µM
CC50 (PC-3): 58.9 µM
GI50 (NCI-H460): 3.98 µM
IC50 (NCI-H460): 4.68 µM
IC (TGI) (NCI-H460): 14.5 µM
CC50 (NCI-H460): 44.7 µM
